Results from US20220347175A1, “PYRIDAZINONE DERIVATIVE” (Sumitomo Dainippon Pharma Co., Ltd., priority 2018, published 2022).

Molecular target: T1, human Nav1.1 (Homo sapiens, UniProt P35498)
T1 construct: host or cells: HEK293
Experiment: Amplification of Nav1.1-derived voltage-dependent sodium current (Nav1.1 current), cell line stably expressing human Nav1.1, automated patch clamp
Type: cell-based
Conditions: 10 μmol/L compound (Test Result 5)
Method in brief: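 Automated whole-cell voltage-clamp recordings used HEK293 cells stably expressing human Nav1.1, keeping only cells with >500 pA current, with currents evoked by ramp voltage. Compounds were applied in extracellular fluid with 1% DMSO, and amplification (%) was computed from peak current or AUC after versus before addition.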

Nav1.1 current amplification rate (%) | Structure (SMILES)
44 | CC1CC=C(c2ccc(=O)n(CC(=O)Nc3ccc(CO)nc3)n2)CC1 (racemic) [Example 376]
33 | N#Cc1ccc(NC(=O)Cn2nc(C3=CCCCO3)ccc2=O)cc1 [Example 48]
216 | CC1(C)CC=C(c2ccc(=O)n(CC(=O)Nc3ccc(C#N)cc3)n2)CC1 [Example 42]
128 | O=C(Cn1nc(C2=CCCC2)ccc1=O)N1CCc2c(N3CCOCC3)cccc21 [Example 481]
35 | CC1CC=C(c2ccc(=O)n(CC(=O)Nc3ccnc(CO)c3)n2)CC1 (racemic) [Example 370]
34 | Cc1ccc(-c2ccc(=O)n(CC(=O)Nc3ccnnc3)n2)cc1 [Example 142]
311 | N#Cc1ccc(NC(=O)Cn2nc(N3CCC4(CCC4)C3)ccc2=O)cc1 [Example 34]
301 | Cc1c(N2CCC(C)CC2)nn(CC(=O)Nc2ccc(C#N)cc2)c(=O)c1C [Example 35]
5 | N#Cc1ccc(NC(=O)Cn2nc(N3CCC4(CC3)COC4)ccc2=O)cc1 [Example 27]

Structure (SMILES) | Nav1.1 current amplification rate (%)
CCCCN(C)c1ccc(=O)n(CC(=O)Nc2ccc(C#N)cc2)n1 [Example 30] | 77
CC1CC(C)CN(c2ccc(=O)n(CC(=O)Nc3ccc(C#N)cc3)n2)C1 (stereo not shown) [Example 15] | 10
CC1(C)CCN(c2ccc(=O)n(CC(=O)Nc3ccc(C#N)cc3)n2)C1 [Example 21] | 130
N#Cc1ccc(NC(=O)Cn2nc(N3CC4CC4C3)ccc2=O)cc1 (stereo not shown) [Example 18] | 11

Same assay, conditions: 10 μmol/L compound (Test Result 5); read-out: Nav1.1 current amplification rate (%)

activation at 10 µM [%] | Structure (SMILES)
174 | CC1(C)CCC(c2ccc(=O)n(CC(=O)Nc3ccc(C#N)cc3)n2)CC1 [Example 38, N-(4-Cyanophenyl)-2-[3-(4,4-dimethylcyclohexyl)-6-oxopyridazin-1(6H)-yl]acetamide]
93 | N#Cc1ccc(NC(=O)Cn2nc(C3=CCC(F)(F)CC3)ccc2=O)cc1 [Example 37, N-(4-Cyanophenyl)-2-[3-(4,4-difluorocyclohex-1-en-1-yl)-6-oxopyridazin-1(6H)-yl]acetamide]

Same assay, conditions: Concentration 1 μM (Test Result 7); read-out: Nav1.1 current amplification rate (%)

activation at 1 µM [%] | Structure (SMILES)
62 | CN(c1ccc(=O)n(CC(=O)N2CCc3c(N4CCOCC4)cccc32)n1)C1CCCC1 [Example 565]
155 | O=C(Cn1nc(N2CCC3(CCC3)CC2)ccc1=O)Nc1ccc2cncnc2c1 [Example 553]
70 | CC1CC=C(c2ccc(=O)n(CC(=O)Nc3ccc(C#N)cc3F)n2)CC1 (stereo not shown) [Example 547]
59 | CC1CC=C(c2ccc(=O)n(CC(=O)Nc3ccc4ncccc4c3)n2)CC1 (stereo not shown) [Example 546]
41 | CC1CC=C(c2ccc(=O)n(CC(=O)Nc3cnc4ccccc4n3)n2)CC1 (stereo not shown) [Example 548]

Same assay, conditions: compound 50 μmol/L; HEK293 stably expressing human Nav1.1

Nav1.1 current amplification rate (%) | Structure (SMILES)
126 | CC1CC=C(c2ccc(=O)n(CC(=O)N3CC=C(c4cccnc4)C3)n2)CC1 (racemic) [Example 386]
10 | CC1CC=C(c2ccc(=O)n(CC(=O)NC3CCN(c4ccccc4)C3)n2)CC1 (mixture of isomers) [Example 369]

Same assay, conditions: compound 50 μmol/L; HEK293 stably expressing human Nav1.1; read-out: Nav1.1 current amplification rate (%)

activation at 50 µM [%] | Structure (SMILES)
47 | CC1CCN(c2ccc(=O)n(CC(=O)Nc3ccc4c(c3)NCC4)n2)CC1 [Example 233]

Same assay, conditions: concentration of each compound 1 μmol/L (Test Result 6)

Nav1.1 current amplification rate (%) | Structure (SMILES)
26 | CC1CC=C(c2ccc(=O)n(CC(=O)N3CCc4c(CN5CCCCC5)cccc43)n2)CC1 (racemic) [Example 282]
87 | CC(=O)N1CC=C(c2nccc3c2CCN3C(=O)Cn2nc(C3=CCC(C)CC3)ccc2=O)C1 (racemic) [Example 310]
46 | CC1CC=C(c2ccc(=O)n(CC(=O)N3CCc4c(-c5cc[nH]n5)ccc(F)c43)n2)CC1 (racemic) [Example 292]
174 | CC1CC=C(c2ccc(=O)n(CC(=O)Nc3cccc(-n4ccnc4)c3)n2)CC1 (racemic) [Example 363]

Same assay, conditions: concentration of each compound 1 μmol/L (Test Result 6); read-out: Nav1.1 current amplification rate (%)

activation at 1 µM [%] | Structure (SMILES)
50 | COc1cc(=O)n(CC(=O)Nc2ccn3ncnc3c2)nc1C1=CCC(C)(C)CC1 [Example 499]
